Assay results: PMC6988731 (Bioorganic & medicinal chemistry, 2011)

Biological target: rat TRPV1 (Rattus norvegicus, UniProt O35433)
Experiment: competitive binding assay with [3H]RTX, rat TRPV1 expressed in CHO cells
Details: rTRPV1/CHO; for fold reduction in binding affinity and antagonism compared to 50: relative to 50; for fold less potent than parent 3: receptor activity (binding affinity and antagonism), relative to 3

rat TRPV1, sequence (O35433 whole entry): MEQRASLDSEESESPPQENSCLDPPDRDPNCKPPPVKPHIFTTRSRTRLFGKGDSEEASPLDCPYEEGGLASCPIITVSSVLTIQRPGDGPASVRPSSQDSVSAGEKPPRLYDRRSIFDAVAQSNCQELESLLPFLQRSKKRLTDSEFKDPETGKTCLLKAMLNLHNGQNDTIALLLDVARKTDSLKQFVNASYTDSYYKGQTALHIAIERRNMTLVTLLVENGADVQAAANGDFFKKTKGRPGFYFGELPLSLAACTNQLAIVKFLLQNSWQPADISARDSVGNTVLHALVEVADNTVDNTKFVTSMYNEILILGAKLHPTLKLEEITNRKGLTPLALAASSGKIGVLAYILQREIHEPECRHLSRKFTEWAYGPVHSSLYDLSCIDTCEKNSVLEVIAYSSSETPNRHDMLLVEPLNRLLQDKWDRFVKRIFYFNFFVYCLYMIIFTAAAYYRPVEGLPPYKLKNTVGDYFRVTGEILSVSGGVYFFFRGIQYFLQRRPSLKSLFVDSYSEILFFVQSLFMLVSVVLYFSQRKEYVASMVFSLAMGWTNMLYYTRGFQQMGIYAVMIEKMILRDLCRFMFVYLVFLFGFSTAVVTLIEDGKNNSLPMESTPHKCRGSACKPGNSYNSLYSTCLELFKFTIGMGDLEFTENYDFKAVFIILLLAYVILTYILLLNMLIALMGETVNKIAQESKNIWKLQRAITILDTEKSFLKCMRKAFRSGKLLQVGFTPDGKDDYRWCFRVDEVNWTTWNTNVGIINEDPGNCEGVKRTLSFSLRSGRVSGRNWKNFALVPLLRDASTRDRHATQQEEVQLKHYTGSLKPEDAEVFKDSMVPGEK

fold reduction in binding affinity and antagonism compared to 50	fold less potent than parent 3	SMILES
5–10 fold	–	CC(C(=O)NCC=C1c2ccccc2CCc2ccccc21)c1ccc(NS(C)(=O)=O)c(F)c1 (stereo not shown) [compound 59, N-[2-(10,11-Dihydro-5H-dibenzo[a,d]cyclohepten-5-yliden)ethyl]-2-[3-fluoro-4-(methylsulfonylamino)phenyl]propionamide]
–	10 fold	CC(C(=O)NCc1ccc(I)cc1)c1ccc(NS(C)(=O)=O)c(F)c1 (stereo not shown) [compound 24, 2-(3-Fluoro-4-methanesulfonylamino-phenyl)-N-(4-iodo-benzyl)-propionamide]
–	ca. 10 fold	Cc1ccc(CCCNC(=O)C(C)c2ccc(NS(C)(=O)=O)c(F)c2)cc1C (stereo not shown) [compound 40, N-[3-(3,4-Dimethylphenyl)propyl]-2-[3-fluoro-4-(methylsulfonylamino)phenyl]propionamide]
5–10 fold	–	CC(C(=O)NCC=C1c2ccccc2C=Cc2ccccc21)c1ccc(NS(C)(=O)=O)c(F)c1 (stereo not shown) [compound 60, N-[2-Dibenzo[a,d]cyclohepten-5-ylidene-ethyl]-2-(3-fluoro-4-methylsulfonylamino-phenyl)-propionamide]
